Legend:
[1] = system: rat models with a hand-foot skin reaction; experiment: rat models with a hand-foot skin reaction; type: in vivo, SD rats
Procedure: After adaptive feeding for one week, SD rats (with a body weight of approximately 200 g) were randomly divided into groups with balanced body weight, with 12 rats in each group. Modeling drugs (including sorafenib, erlotinib, afatinib, and osimertinib) were respectively dissolved in a solution containing 5% of DMSO, 45% of PEG400, and 50% of H2O, and the modeling drugs were diluted to required concentrations and then administered once daily by gavage at doses shown in Table 3. After administration by gavage for 1 hour, 0.05 g of ointments containing different mass proportions of test compounds were evenly applied to left paws of the rats, a blank matrix ointment was applied to right paws of the rats to serve as a self-control, and no ointment was applied to the rats in a blank control group. After drug application, four limbs were continuously immobilized for 2 hours, then wiped with clean water to remove the residual drugs, removed from immobilization, and restored to free movement. The modeling drugs, the blank matrix ointment, and the ointments containing the test compounds were all administered once daily. After continuous administration for 30 days, the rats were euthanized, and paw plantar skin tissues were collected, fixed in 10% neutral formalin, […]. The ointments for the test compounds were prepared by mixing the compounds, white beeswax, white petrolatum, and light liquid paraffin in specific ratios (weight ratios of 3 ointments were respectively 1:18:58:23, 3:18:57:22, and 10:20:40:30). The blank matrix ointment was prepared by mixing white beeswax, white petrolatum, and light liquid paraffin in a specific ratio (weight ratio of 18:60:22).
Tissue staining: After dewaxing and rehydration, the paw plantar skin tissue sections of the above rats were stained in a hematoxylin solution for several minutes, cleaned, and placed in 1% acid alcohol for soaking until the sections faded to light blue-red. After cleaning with running water for 5 minutes, the sections were stained with eosin for 2-3 minutes, cleaned to remove excess dyes, dehydrated, then permeabilized by adding xylene for several minutes, and sealed and fixed with a neutral resin. The stratum corneum was observed under an optical microscope, and the thickness of the epidermal stratum corneum was measured using Dmetrix software.
Immunohistochemical staining: After dewaxing and hydration, the paw plantar skin tissue sections of the above rats were incubated with 3% H2O2 at room temperature for 30 minutes and blocked with 10% goat serum for 30 minutes after antigen retrieval. A KRT1 antibody (Abcam, ab93652) and a Loricrin antibody (Abcam, ab183646) were added dropwise, the sections were incubated overnight at 4°C, and an HRP secondary antibody (ZSGB-BIO, PV-6001) and a DAB kit (ZSG-BIO, ZLI9017) were added for color development. The sections were re-stained with hematoxylin, cleaned, and sealed and fixed with a neutral resin, and the expression amounts of KRT1 and Loricrin were observed under an optical microscope.
An incidence rate calculation method involves a proportion of animals in each group meeting the above criteria for determining successful modeling, that is, incidence rate = (number of successfully modeled rats/total number of rats in the group)*100%. […]

[2] = system: kinase inhibitor-induced mouse model with hand-foot skin reaction; experiment: kinase inhibitor-induced mouse model with hand-foot skin reaction; type: in vivo, ICR mice
Excerpt: After adaptive feeding for 7 days, SPF-grade ICR mice (male, 5-6 weeks old, with a body weight of approximately 35 g) were randomly divided into groups, including a blank control group (6 mice), a sorafenib modeling group (6 mice), an osimertinib modeling group (6 mice), a sorafenib + compound of formula (I) group (6 mice), an osimertinib + compound of formula (I) group (6 mice), a sorafenib + nicotinamide group (6 mice), and an osimertinib + nicotinamide group (6 mice). The groups were respectively administered corresponding modeling drugs by oral gavage (sorafenib at 100 mg/kg and osimertinib at 10 mg/kg) once daily; and the blank control group was administered an equivalent volume of normal saline. After administration with the chemotherapeutic drugs for 2 weeks, the ointments containing the compound of formula (I) (at a compound content of 3%) used in Example 10 were respectively applied topically in the groups, or nicotinamide was orally administered (100 mg/kg) once daily continuously for 16 days.
Measurement of the degree of swelling of toes: The degree of swelling of hind limb toes of the mice was measured using a toe swelling tester (KW-7C, Nanjing Calvin Biotechnology Co., Ltd.) before administration with the modeling drugs, after administration with the modeling drugs for 2 weeks, and before sacrifice, respectively. Before measurement, ankle joints of hind feet of the mice were marked at same positions before administration, after administration for 2 weeks, and before sacrifice. During measurement, water was properly located at the same level as the marked positions, and numerical values were recorded after becoming stable.
Pathological staining of skin tissues: Skin tissue samples were selected from hind limb toes of the mice and placed in 4% paraformaldehyde for fixation at room temperature for 4 hours. Then, the tissues were taken out and rinsed with running water for several hours. The samples were subjected to dehydration treatment with 70%, 80%, and 90% ethanol solutions, followed by treatment with a mixed solution of equal amounts of absolute alcohol and xylene for 15 minutes, and then permeabilized twice with a xylene solution for 15 minutes each time until the samples became transparent. The samples were placed in a mixture of half xylene and half paraffin for soaking for 15 minutes, and then, paraffin I and paraffin II were added for wax penetration for one hour, respectively. After embedding with paraffin, the samples were sectioned, baked, dewaxed, and hydrated. Then, the hydrated sections were placed in a hematoxylin solution (ZSGB-BIO, article No. 23041001) for staining for 3 minutes, and a differentiation solution of hydrochloric acid in ethanol was added for differentiation for 15 seconds. After rinsing with water, a Scott bluing solution (Servicebio, article No. 20230801) was added for bluing for 15 seconds. After rinsing with running water, the sections were stained with an eosin solution (Solarbio, article No. 33535) for 3 minutes, rinsed with running water, dehydrated, permeabilized, sealed, and inspected under a microscope.
Immunohistochemical staining: After baking, dewaxing, and hydration, paraffin sections of skin tissues of hind limb toes of the mice were subjected to antigen retrieval using a 0.2 M citric acid buffer solution (containing 1.534 g of citric acid, 3.1 g of sodium citrate, and 100 mL of distilled water, pH 4.7). Endogenous […] was removed using 3% hydrogen peroxide (Shandong Annjet High-Tech Disinfection Technology Co., Ltd., article No. 20290902), and the sections were incubated at room temperature for 10 minutes and then fully rinsed with a PBS buffer solution (containing 8 g of NaCl, 0.2 g of KCl, 1.44 g of Na2HPO4, and 1 M HCl, pH 7.4). The sections were permeabilized with 0.5% Triton-X-100 (AmyJet Scientific, article No. A-CSH436-100 mL), respectively permeabilized with mouse anti-IL-1β and rabbit IL-8 for 10 minutes, and not permeabilized with rabbit anti-IL-6. […]

[3] = modeling drug alone by gavage once daily 30 days (Sorafenib 100, Erlotinib 70, Afatinib 50, Osimertinib 60 mg/kg), no test compound

Structure (SMILES): CNC(=O)c1cc(Oc2ccc(NC(=O)Nc3ccc(Cl)c(C(F)(F)F)c3)cc2)ccn1 [Sorafenib, sorafenib]
- successful modeling rates for the hand-foot skin reaction ([1]; SD rats, once daily by gavage: sorafenib 100, erlotinib 70, afatinib 50, osimertinib 60 mg/kg): 75%
- KRT1 and Loricrin in tissues ([1]; immunohistochemical staining, successfully modeled rats, modeling drug alone): significantly increased
- Incidence rate Left paw [1, 3]: 9/12 (75%)
- Incidence rate Right paw [1, 3]: 9/12 (75%)
- stratum corneum thickness of the paw plantar skin ([1]; successfully modeled rats, modeling drug alone, vs normal rats): significantly higher than that of normal rats
- cytokine IL-1β in the skin tissues of the hind limb toes of the mice ([2]; modeling drug oral 14 days, vs normal control group, p<0.05): significantly increased
- swelling of the hind limb toes of the mice ([2]; modeling drug oral, 14 days: sorafenib 100 mg/kg, osimertinib 10 mg/kg): significant swelling of the hind limb toes of the mice was caused
- epidermal layer and the stratum corneum in the skin tissues of the hind limb toes ([2]; modeling drug oral, 14 days: sorafenib, osimertinib, vs normal control group): significantly thickened
- skin of the hind limb toes of the mice (appearance) ([2]; modeling for 14 days: sorafenib 100 mg/kg, osimertinib 10 mg/kg oral gavage once daily, vs normal control group): obvious erythema and rhagades
